In one series the test system is osteoclasts. Briefly: Bone absorption-inhibitory action in cell co-cultivation system (TRACP activity). The format is cell-based, mice. The note with it: 10 μM test substance. From the text: The cell co-culture system used herein means a system in which osteoblasts and hematopoietic cells are subjected to co-culture in the presence of a factor for promoting the formation of osteoclasts and which thus easily permits the analysis of the differentiation process of the osteoclasts (Endocrinology, 1988, 123: 2600-2602). In such a system, osteoclasts are formed and therefore, the degree of osteoclast-formation can be evaluated by the determination of a tartaric acid-resistant acid phosphatase (TRACP) activity in the cell layer as the parameter indicative of the osteoclast.
The test for the confirmation of the bone absorption-inhibitory action of the isoprenoid ester was carried out according to the method disclosed in the literature (Endocrinology, 1988, 123: 2600). The method will be outlined below:
Stroma cells collected from the skull-caps of two-week-old mice according to the method disclosed in the literature (Endocrinology, 1988, 123: 2600) were dispersed in a 10% fetal bovine serum-containing culture base liquid (α-MEM; available from Gibco Company) to a cell density of 5×10^4 cells/mL.
Spleen cells collected from the spleen of 6-week-old ddy male mice according to the method disclosed in the literature (Proc. Natl. Acad. Sci. USA, 1983, 80: 5583) were dispersed in a 10% fetal bovine serum-containing culture base liquid (α-MEM; available from Gibco Company) to a cell density of 5×10^5 cells/mL.
The co-cultivation was carried out in a 5% CO2-containing atmosphere at a temperature of 37° C. using a 10% FBS (fetal bovine serum)-containing culture base liquid (α-MEM; available from Gibco Company). Osteoblast cells were inoculated on a 24-well petri dish at a cell density of 5×10^4 cells/mL/well, spleen cells were then inoculated thereon at a cell density of 5×10^5 cells/mL/well after one day and a solution of a test substance, which had been dissolved in DMSO in a concentration of 10^-2M, was then added to each well in such a manner that the concentration of the test substance was equal to 10 μM. These cells were cultivated in the presence of 10 nM Calcitriol and 100 nM Dexamethasone over 2 weeks while defining the day on which the spleen cells were inoculated as 0th day. In this respect, the culture medium was replaced with fresh one twice a week. After two weeks, the activity of the tartrate-resistant acid phosphatase (hereunder referred to as “TRACP”) in the cell layer was determined, which served as a parameter indicating the number of osteoclasts in the layer.
In the determination of the TRACP activity, there was used a kit of acid phosphatase KII-WAKO (available from WAKO Pure Chemical Co., Ltd.). The culture medium was removed from the Petri dish, 500 μL each of a substrate was added to each well, the resulting cell suspension was heated at 37° C. for 15 minutes, followed by the addition of 500 μL each of a color developing liquid and the determination of the absorbance at a wavelength of 570 nm. The TRACP activity corresponding to each absorbance thus measured was determined using a calibration curve prepared in advance.

The subject of series [1] is MC3T3-E1 cells. Briefly: Cell growth rate of osteoblasts in cell culture system. The class given is cell-based, mice. The settings on record: 10 μM; viable cells after 3 days; relative to control defined as 100. From the text:
(§1) In such a system, the osteoblasts are proliferated and the activity of osteoblasts is increased. Therefore, any influence of a substance on the osteoblast-formation can be evaluated by determining, for instance, the rate of cell proliferation and the alkaline phosphatase (ALP) activity as an activity parameter.
(§2) In this Example, there were examined the effects of the chain isoprenoid fatty acid esters on the differentiation and calcium-accumulation of MC3T3-E1 cells or the osteoblasts derived from the skull-caps of mice. A culture medium was added to a 6-well plate in an amount of 2 mL/well, a desired number of MC3T3-E1 cells was inoculated on the medium and the cells were cultivated in a 10% fatal bovine serum-containing base culture liquid (α-MEM, available from Gibco Company) at 37° C. in an atmosphere of 5% CO2. On the day subsequent to the initiation of the cultivation, the culture medium was replaced with the fresh one and simultaneously a solution containing each test sample (the chain isoprenoid fatty acid esters obtained in Preparation Examples 1 to 9) was admixed with and added to the culture medium in an amount of 10 μM for the determination of the cell growth rate and 2.5 μM for the determination of the alkali phosphatase (ALP) activity and the cultivation was continued. The cells for the cell growth rate determination were recovered after 3 days from the initiation of the cultivation and the number of viable cells was counted to determine the cell growth rate. Regarding the other cells, the medium was replaced with fresh one on 5th day of cultivation, the test sample-containing solution was again added and the alkali phosphatase (ALP) activity was determined after the cultivation over one week.
The cell growth rate was calculated as a value relative to the cell growth rate observed for the control (free of any added test sample), which was defined to be 100.

A further series is described as follows: Test for acute toxicity. The class given is in vivo, rats. The note with it: oral. The protocol:
The acute toxicity test was carried out according to the following method. Whister female rats (6-week-old, average body weight: 160 g) were previously kept for one week using a powdery blend feed having an AIN-93 composition, divided into three groups (each group containing 10 animals) in such a manner that the average body weight was uniform and the groups were specified as the orally administered group, the subcutaneously administered group and the intraperitoneally administered group, in the following tests. Geranyl-geranyl eicosapentaenoate prepared according to the procedures used in Example 5 was dissolved in cotton seed oil and administered to the foregoing animals through the corresponding administration routes in an amount of 2000 mg/kg (body weight). Subsequently, these animals were kept using a powdery blend feed having an AIN-93 composition to thus observe the prognostic conditions of the animals over 2 weeks after the administration and after 2 weeks, these animals were anatomized to thus inspect the animals for conditions of internal organs thereof.

Series [2] concerns MC3T3-E1 cells. Briefly: Alkaline phosphatase (ALP) activity of osteoblasts in cell culture system. The note with it: 2.5 μM. The class given is cell-based, mice.
Text: as §1, §2
In these experiments, there was used a kit for Alkaline Phospha K-Test WAKO (available from WAKO Pure Chemical Co., Ltd.). A sample used was a suspension of cells obtained by cultivating the same in the presence of each test substance added. A substrate (150 μL) was added to 10 μL of each sample followed by heating at 37° C. for 15 minutes, the addition of 150 μL of a color-developing liquid and determination of the absorbance at 570 nm. The ALP activity corresponding to each absorbance thus measured was determined using a calibration curve prepared in advance.

Geranyl-Geranyl Eicosapentaenoate: the “Judged Efficacy (TRACP, t-test relative to the control)” value with osteoclasts (2 weeks) is on record as “⊚ (The test substance shows a considerable inhibitory effect (p < 0.01))”. Also, the “TRACP Act.” value in the series on osteoclasts (co-culture 2 weeks with 10 nM Calcitriol and 100 nM Dexamethasone, control 102.8 ± 12.6) is 9.7 ± 1.4 KA-U/well. In addition, in the series with MC3T3-E1 cells [1], the “Cell Growth Rate” value is reported as 107.8%. The “Anatomical findings of the internal organs” value in “Test for acute toxicity” (2000 mg/kg, subcutaneous, intraperitoneal, after 2 weeks) is given as “normal”. Further, in the series “Test for acute toxicity” (2000 mg/kg, subcutaneous, intraperitoneal, after 2 weeks from the administration), the Mortality result was “any animal was not killed”. The LD50 value result in “Test for acute toxicity” (female rats, subcutaneous and intraperitoneal groups, single 2000 mg/kg in cotton seed oil, 2 weeks observation) is recorded as “higher than 2000 mg/kg (body weight)”. Further, the “ALP Act.” value in the series with MC3T3-E1 cells [2] (cultivation over one week, control 71.6 ± 4.6) was 123.5 ± 7.3 KA-U/well. The “Judged Efficacy (ALP, t-test relative to the control)” value in the series with MC3T3-E1 cells [2] (one week) is recorded as “⊚ (The test substance shows a considerable inhibitory effect (p < 0.01))”.

(Values after patent publication US7579374B2, “Agent for improving bone metabolism” (The Nisshin OilliO Group, Ltd., priority 2001, dated 2009).)
